In BigSolDB 2.1:

Cl.N=C(N)N
solubility (mole fraction)
Settings	278.15 K	283.15 K	288.15 K	293.15 K	298.15 K	303.15 K	308.15 K	313.15 K	318.15 K	323.15 K
in 2-butoxyethanol	0.104	0.111	0.126	0.138	0.153	0.169	0.185	0.201	0.216	0.236
in 2-ethoxyethanol	0.252	0.263	0.275	0.284	0.296	0.308	0.321	0.334	0.349	0.362
in 2-methoxyethanol	0.293	0.302	0.312	0.323	0.333	0.345	0.355	0.368	0.381	0.394
in 2-propoxyethanol	0.158	0.172	0.185	0.2	0.216	0.232	0.247	0.263	0.28	0.298
in DMAc	0.265	0.283	0.302	0.321	0.34	0.358	0.376	0.394	0.415	0.434
in DMF	0.326	0.345	0.368	0.384	0.402	0.42	0.441	0.456	0.476	0.495
in NMP	0.116	0.128	0.142	0.154	0.17	0.185	0.201	0.216	0.236	0.253
in ethanol	0.0832	0.0916	0.1	0.108	0.117	0.128	0.139	0.152	0.163	0.172
in isopropanol	0.0552	0.0623	0.0699	0.0803	0.0886	0.0991	0.11	0.122	0.135	0.149
in methanol	0.156	0.169	0.179	0.191	0.202	0.214	0.227	0.239	0.253	0.265
in n-propanol	0.0373	0.0447	0.0493	0.0571	0.066	0.0733	0.083	0.0939	0.103	0.115
